Measurements as given in PubChem BioAssay AID1963435 (Molecular Pharmacology Branch, DTP, NCI, 2024).

Tested on: PANC-1 complex spheroid growth, percent test/control
Assay: Anticancer human tumor PANC-1 cell line growth inhibition [Asc];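 also: spheroids exposed to agents for 7 days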;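 as to viability, T/C: percent viability relative to DMSO vehicle wells taken as 100%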
Settings: for IC50: curve of first compound; for viability, T/C: stronger effect = lower value
Summary of the method: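 Spheroid model: tumor line + HUVEC + hMSC. Single agents and combinations; top conc. at/near clinical Cmax (10 microM if undetermined), half-log dilutions. DMSO stocks at 800-fold test concentration.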

[1] = second compound 0.00316 µM, first compound 0.00316 µM
[2] = second compound 0.00316 µM, first compound 0.01 µM
[3] = second compound 0.00316 µM, first compound 0.0316 µM
[4] = second compound 0.00316 µM, first compound 0.1 µM
[5] = second compound 0.01 µM, first compound 0.00316 µM
[6] = second compound 0.01 µM, first compound 0.01 µM
[7] = second compound 0.01 µM, first compound 0.0316 µM
[8] = second compound 0.01 µM, first compound 0.1 µM
[9] = second compound 0.0316 µM, first compound 0.00316 µM
[10] = second compound 0.0316 µM, first compound 0.01 µM
[11] = second compound 0.0316 µM, first compound 0.0316 µM
[12] = second compound 0.0316 µM, first compound 0.1 µM
[13] = second compound 0.0316 µM, first compound 0.316 µM
[14] = second compound 0.0316 µM, first compound 1 µM
[15] = second compound 0.1 µM, first compound 0.00316 µM
[16] = second compound 0.1 µM, first compound 0.01 µM
[17] = second compound 0.1 µM, first compound 0.0316 µM
[18] = second compound 0.1 µM, first compound 0.1 µM
[19] = second compound 0.1 µM, first compound 0.316 µM
[20] = second compound 0.1 µM, first compound 1 µM
[21] = second compound 0.316 µM, first compound 0.00316 µM
[22] = second compound 0.316 µM, first compound 0.01 µM
[23] = second compound 0.316 µM, first compound 0.0316 µM
[24] = second compound 0.316 µM, first compound 0.1 µM
[25] = second compound 0.316 µM, first compound 0.316 µM
[26] = second compound 0.316 µM, first compound 1 µM
[27] = second compound 1 µM, first compound 0.00316 µM
[28] = second compound 1 µM, first compound 0.01 µM
[29] = second compound 1 µM, first compound 0.0316 µM
[30] = second compound 1 µM, first compound 0.1 µM
[31] = second compound 1 µM, first compound 0.316 µM
[32] = second compound 1 µM, first compound 1 µM

Compound `COc1c(OCCCN2CCOCC2)ccc2c3n(c(=NC(=O)c4cnc(N)nc4)nc12)CCN3` + CNC(C)C(=O)NC1CN(S(=O)(=O)c2cccc(S(=O)(=O)N3CCC4CCC(C(=O)NC(c5ccccc5)c5ccccc5)N4C(=O)C(NC(=O)C(C)NC)C3)c2)CCC2CCC(C(=O)NC(c3ccccc3)c3ccccc3)N2C1=O has an IC50 (second compound 0.00316 µM) of 289 nM, an IC50 (second compound 0.01 µM) of 225 nM and an IC50 (second compound 0.0316 µM) of 199 nM. The IC50 (second compound 0.1 µM) was 157 nM, the IC50 (second compound 0.316 µM) was 159 nM and the IC50 (second compound 1 µM) was 191 nM. For the same compound, the viability, T/C [1] was 107%, the viability, T/C [2] was 92.4% and the viability, T/C [3] was 87.6%. The viability, T/C [4] was 74.8%, the viability, T/C (second compound 0.00316 µM, first compound 0.316 µM) was 45.6% and the viability, T/C (second compound 0.00316 µM, first compound 1 µM) was 18.7%. The viability, T/C [5] was 96.1%, the viability, T/C [6] was 95.5% and the viability, T/C [7] was 94.2%. For the same compound, the viability, T/C [8] was 65.7%, the viability, T/C (second compound 0.01 µM, first compound 0.316 µM) was 44% and the viability, T/C (second compound 0.01 µM, first compound 1 µM) was 15.6%. It also gave a viability, T/C [9] of 95.2%, a viability, T/C [10] of 99.1% and a viability, T/C [11] of 89.9%. For the same compound, the viability, T/C [12] was 62.8%, the viability, T/C [13] was 41.3% and the viability, T/C [14] was 13.2%. It also gave a viability, T/C [15] of 103%, a viability, T/C [16] of 90.7% and a viability, T/C [17] of 82.1%. For the same compound, the viability, T/C [18] was 56.6%, the viability, T/C [19] was 36.8% and the viability, T/C [20] was 12.3%. For the same compound, the viability, T/C [21] was 98.7%, the viability, T/C [22] was 91.7% and the viability, T/C [23] was 85.2%. The viability, T/C [24] was 56.9%, the viability, T/C [25] was 36.8% and the viability, T/C [26] was 14.6%. For the same compound, the viability, T/C [27] was 86.9%, the viability, T/C [28] was 96.9% and the viability, T/C [29] was 83.1%. For the same compound, the viability, T/C [30] was 66.4%, the viability, T/C [31] was 37.4% and the viability, T/C [32] was 15.5%.

In the case of `C#Cc1c(F)ccc2cc(O)cc(-c3ncc4c(N5CC6CCC(C5)N6)nc(OCC56CCCN5CC(F)C6)nc4c3F)c12` (stereo unspecified) + Cc1c(S(C)(=O)=O)c(-c2cc(F)cc(N3CCN(c4ccc(NS(=O)(=O)c5ccc(NC(CCN6CCC(C(=O)OCCCP(=O)(O)O)CC6)CSc6ccccc6)c(S(=O)(=O)C(F)(F)F)c5)cc4)CC3)c2)c(-c2ccc(Cl)cc2)n1C(C)C, the IC50 (second compound 0.0316 µM) is reported as greater than 10000 nM, the IC50 (second compound 0.1 µM) is reported as greater than 10000 nM and the IC50 (second compound 0.316 µM) is reported as greater than 10000 nM. For the same compound, the IC50 (second compound 1 µM) was greater than 10000 nM, the IC50 (second compound 3.16 µM) was greater than 10000 nM and the IC50 (second compound 10 µM) was greater than 10000 nM. It also gave a viability, T/C [11] of 86.6%, a viability, T/C [12] of 84% and a viability, T/C [13] of 81.4%. It also gave a viability, T/C [14] of 87.2%, a viability, T/C (second compound 0.0316 µM, first compound 3.16 µM) of 83.5% and a viability, T/C (second compound 0.0316 µM, first compound 10 µM) of 72.6%. The viability, T/C [17] was 84.6%, the viability, T/C [18] was 80.2% and the viability, T/C [19] was 74.8%. It also gave a viability, T/C [20] of 80.9%, a viability, T/C (second compound 0.1 µM, first compound 3.16 µM) of 78% and a viability, T/C (second compound 0.1 µM, first compound 10 µM) of 75.3%. The viability, T/C [23] was 88.7%, the viability, T/C [24] was 77.5% and the viability, T/C [25] was 76.2%. It also gave a viability, T/C [26] of 74%, a viability, T/C (second compound 0.316 µM, first compound 3.16 µM) of 88.2% and a viability, T/C (second compound 0.316 µM, first compound 10 µM) of 69.8%. It also gave a viability, T/C [29] of 80.2%, a viability, T/C [30] of 75.6% and a viability, T/C [31] of 72.6%. The viability, T/C [32] was 67.4%, the viability, T/C (second compound 1 µM, first compound 3.16 µM) was 73.7% and the viability, T/C (second compound 1 µM, first compound 10 µM) was 55.3%. For the same compound, the viability, T/C (second compound 3.16 µM, first compound 0.0316 µM) was 72.4%, the viability, T/C (second compound 3.16 µM, first compound 0.1 µM) was 62.9% and the viability, T/C (second compound 3.16 µM, first compound 0.316 µM) was 59.9%. For the same compound, the viability, T/C (second compound 3.16 µM, first compound 1 µM) was 60.1%, the viability, T/C (second compound 3.16 µM, first compound 3.16 µM) was 59% and the viability, T/C (second compound 3.16 µM, first compound 10 µM) was 56.8%. For the same compound, the viability, T/C (second compound 10 µM, first compound 0.0316 µM) was 114%, the viability, T/C (second compound 10 µM, first compound 0.1 µM) was 103% and the viability, T/C (second compound 10 µM, first compound 0.316 µM) was 101%. It also gave a viability, T/C (second compound 10 µM, first compound 1 µM) of 85.5%, a viability, T/C (second compound 10 µM, first compound 3.16 µM) of 84.9% and a viability, T/C (second compound 10 µM, first compound 10 µM) of 67.9%.

`NC1CCC(NC2CC2c2ccccc2)CC1` (stereo unspecified) + CNC(C)C(=O)NC1CN(S(=O)(=O)c2cccc(S(=O)(=O)N3CCC4CCC(C(=O)NC(c5ccccc5)c5ccccc5)N4C(=O)C(NC(=O)C(C)NC)C3)c2)CCC2CCC(C(=O)NC(c3ccccc3)c3ccccc3)N2C1=O gave an IC50 (second compound 0.00316 µM) greater than 100 nM, an IC50 (second compound 0.01 µM) greater than 100 nM and an IC50 (second compound 0.0316 µM) greater than 100 nM. The IC50 (second compound 0.1 µM) was greater than 100 nM, the IC50 (second compound 0.316 µM) was greater than 100 nM and the IC50 (second compound 1 µM) was greater than 100 nM. For the same compound, the viability, T/C (second compound 0.00316 µM, first compound 0.000316 µM) was 99.3%, the viability, T/C (second compound 0.00316 µM, first compound 0.001 µM) was 94% and the viability, T/C [1] was 90%. The viability, T/C [2] was 87.5%, the viability, T/C [3] was 99.4% and the viability, T/C [4] was 87.8%. For the same compound, the viability, T/C (second compound 0.01 µM, first compound 0.000316 µM) was 95%, the viability, T/C (second compound 0.01 µM, first compound 0.001 µM) was 95.9% and the viability, T/C [5] was 88.5%. For the same compound, the viability, T/C [6] was 85%, the viability, T/C [7] was 93.5% and the viability, T/C [8] was 94.4%. The viability, T/C (second compound 0.0316 µM, first compound 0.000316 µM) was 95%, the viability, T/C (second compound 0.0316 µM, first compound 0.001 µM) was 96.8% and the viability, T/C [9] was 85.7%. The viability, T/C [10] was 86.5%, the viability, T/C [11] was 84.5% and the viability, T/C [12] was 93.4%. It also gave a viability, T/C (second compound 0.1 µM, first compound 0.000316 µM) of 98.9%, a viability, T/C (second compound 0.1 µM, first compound 0.001 µM) of 102% and a viability, T/C [15] of 96.5%. It also gave a viability, T/C [16] of 93%, a viability, T/C [17] of 92.8% and a viability, T/C [18] of 87.8%. The viability, T/C (second compound 0.316 µM, first compound 0.000316 µM) was 102%, the viability, T/C (second compound 0.316 µM, first compound 0.001 µM) was 97.9% and the viability, T/C [21] was 108%. It also gave a viability, T/C [22] of 84.9%, a viability, T/C [23] of 97.8% and a viability, T/C [24] of 93.5%. It also gave a viability, T/C (second compound 1 µM, first compound 0.000316 µM) of 94.6%, a viability, T/C (second compound 1 µM, first compound 0.001 µM) of 76.7% and a viability, T/C [27] of 99.3%. It also gave a viability, T/C [28] of 85.9%, a viability, T/C [29] of 90.7% and a viability, T/C [30] of 92.3%.
